One block for each compound: values may come before it. The source made the active and inactive calls. The rule behind the calls is not given here.
Legend:
[1] = Cytotoxicity against human U251 cells assessed as inhibition of cell growth measured after 72 hrs by MTT assay; format: toxicity, cell-based, U-251
[2] = Antiproliferative activity against human U87 cells assessed as inhibition of cell growth incubated for 72 hrs by MTT assay; format: functional, cell-based, U-87MG ATCC; conditions: U-87 MG
MDA-MB-231 = assay: Antiproliferative activity against human MDA-MB-231 cells assessed as cell growth inhibition measured after 72 hrs by MTT assay; format: functional, cell-based; conditions: MDA-MB-231, 72 h
JIMT-1 = assay: Antiproliferative activity against human JIMT-1 cells assessed as cell growth inhibition measured after 72 hrs by MTT assay; format: functional, cell-based; conditions: JIMT-1, 72 h
SK-OV-3 = assay: Antiproliferative activity against human SK-OV-3 cells assessed as cell growth inhibition measured after 72 hrs by MTT assay; format: functional, cell-based; conditions: SK-OV-3, 72 h
[3] = Antiproliferative activity against human HLF1 cells assessed as cell growth inhibition measured after 72 hrs by MTT assay; format: functional, cell-based; conditions: HLF1, 72 h
U-87MG ATCC [4] = assay: Antitumor activity against human U87 cells xenografted in BALB/c mouse model assessed as decrease in Ki67 positive cells at 20 mg/kg, iv; format: functional, organism-based
[5] = Toxicity in BALB/c mouse transplanted with human U87 cells assessed as effect in body weight at 20 mg/kg, iv; format: organism-based, U-87MG ATCC; conditions: in vivo
[6] = target: Transforming acidic coiled-coil-containing protein 3 (Homo sapiens) (UniProt Q9Y6A5); assay: Inhibition of TACC3 in human U87 cells assessed as stabilization of protein by measuring shift in thermal melting curve at 10 uM incubated for 6 hrs by cellular thermal shift assay; format: cell-based
[7] = target: Transforming acidic coiled-coil-containing protein 3 (Homo sapiens) (UniProt Q9Y6A5); assay: Inhibition of TACC3 in human U87 cells assessed as stabilization of protein by measuring shift in thermal melting curve at 10 uM in presence of pronase incubated for 6 hrs by cellular thermal shift assay; format: cell-based
U-87MG ATCC [8] = assay: Antiproliferative activity against shRNA mediated TACC3 knockdown human U87 cells assessed as reduction in cell viability; format: functional, cell-based
U-87MG ATCC [9] = assay: Induction of cell cycle arrest in human U87 cells assessed as increase in accumulation at G2/M phase at 2 uM after 24 hrs by propidium iodide staining based flow cytometric analysis; format: functional
[10] = Induction of cell cycle arrest in human U87 cells assessed as increase in accumulation at G2/M phase at 4 uM after 36 hrs by propidium iodide staining based flow cytometric analysis relative to control (reference value: 15.3 %); format: functional, U-87MG ATCC
[11] = Induction of cell cycle arrest in human U87 cells assessed as decrease in accumulation at G1 phase at 4 uM after 36 hrs by propidium iodide staining based flow cytometric analysis relative to control (reference value: 51.7 %); format: functional, U-87MG ATCC; set-up: scale not given: the % may be the effect or the level left
[12] = Induction of cell cycle arrest in shRNA induced in human U87 cells assessed as accumulation at G2/M phase at 1 to 4 uM by propidium iodide staining based flow cytometric analysis relative to control (reference value: 14.95 %); format: functional, U-87MG ATCC; conditions: dose 1-4 µM
[13] = Stability in mouse plasma assessed as half life; format: ADME, cell-free
U-87MG ATCC [14] = assay: Induction of apoptosis in human U87 cells assessed as increase in number of apoptotic cells by Hoechst 33258 staining method; format: functional, cell-based
U-87MG ATCC [15] = assay: Induction of apoptosis in human U87 cells by AnnexinV/PI staining assay; format: functional, cell-based; conditions: dose 1-4 µM
[16] = Induction of apoptosis in human U87 cells assessed as early apoptosis at 4 uM incubated for 36 hrs by AnnexinV/propidium iodide staining based flow cytometry method relative to control (reference value: 4.49 %); format: functional, U-87MG ATCC
[17] = Induction of apoptosis in human U87 cells assessed as late apoptosis at 4 uM incubated for 36 hrs by AnnexinV/propidium iodide staining based flow cytometry method relative to control (reference value: 0.52 %); format: functional, U-87MG ATCC
[18] = Induction of mitochondrial membrane potential loss in human U87 cells assessed as increase in green fluorescence intensity at 0 to 4 uM incubated for 36 hrs by JC-1 staining based flow cytometry relative to control (reference value: 9.34 %); format: functional, U-87MG ATCC; conditions: dose 0-4 µM
[19] = Induction of ROS generation in human U87 cells at 4 uM incubated for 36 hrs by DCF-DA based flow cytometry analysis relative to control (Rvb= 4.01 %); format: functional, U-87MG ATCC
[20] = Stability in human plasma assessed as half life; format: ADME, cell-free
U-87MG ATCC [21] = assay: Inhibition of cell migration in human U87 cells assessed as reduction in cell migration incubated for 24 hrs by wound healing assay; format: functional, cell-based
[22] = Inhibition of cell invasion in human U87 cells assessed as reduction in number of cells invaded at 1 uM incubated for 24 hrs by matrigel-coated transwell assay (reference value: 154.3%); format: functional, U-87MG ATCC
[23] = Inhibition of cell invasion in human U87 cells assessed as reduction in number of cells invaded at 2 uM incubated for 24 hrs by matrigel-coated transwell assay (reference value: 154.3%); format: functional, U-87MG ATCC
[24] = Inhibition of cell invasion in human U87 cells assessed as reduction in number of cells invaded at 4 uM incubated for 24 hrs by matrigel-coated transwell assay (reference value: 154.3%); format: functional, U-87MG ATCC
[25] = Cytotoxicity against human U87 cells assessed as reduction in cell viability measured after 24 hrs by MTT assay; format: toxicity, cell-based, U-87MG ATCC
U-87MG ATCC [26] = assay: Antitumor activity against human U87 cells xenografted in BALB/c mouse model assessed as tumor growth regression at 20 mg/kg, iv measured on day 20; format: functional, organism-based
U-87MG ATCC [27] = assay: Antitumor activity against human U87 cells xenografted in BALB/c mouse model assessed as increase in apoptotic cells at 20 mg/kg, iv by TUNEL assay; format: functional, organism-based
[28] = Antitumor activity against human U87 cells xenografted in BALB/c mouse model assessed as reduction in tumor weight at 20 mg/kg, iv measured on day 20; format: functional, U-87MG ATCC; set-up: scale not given: the % may be the effect or the level left
U-87MG ATCC [29] = assay: Induction of ROS generation in human U87 cells at incubated for 36 hrs by DCF-DA based flow cytometry analysis; format: functional, cell-based; conditions: dose 1-4 µM

- IC50 (MDA-MB-231): 27.7 µM
- IC50 (SK-OV-3): 33.3 µM
SMILES: c1ccc(-c2nc(CNc3nccc(N4CCC4)n3)cs2)cc1
- IC50 at 72 h [1]: 29.2 µM
- IC50 [2]: 21.5 µM
- IC50 (JIMT-1): 25.7 µM
- IC50 [3]: 91.1 µM

- IC50 (MDA-MB-231): 0.32 µM
- IC50 (SK-OV-3): 0.19 µM
SMILES: COc1cccc2c1C(=O)c1c(O)c3c(c(O)c1C2=O)C[C@@](O)(C(=O)CO)C[C@@H]3O[C@H]1C[C@H](N)[C@H](O)[C@H](C)O1 [DOXORUBICIN]
- IC50 at 72 h [1]: 0.45 µM
- IC50 [2]: 0.25 µM
- IC50 (JIMT-1): 0.37 µM
- IC50 [3]: 0.23 µM

- IC50 (MDA-MB-231): 23.2 µM
- IC50 (SK-OV-3): 22.2 µM
SMILES: CCCN(CCC)c1ccnc(NCc2csc(-c3ccccc3)n2)n1
- IC50 at 72 h [1]: 16.2 µM
- IC50 [2]: 16.4 µM
- IC50 (JIMT-1): 16.9 µM
- IC50 [3]: 46.9 µM

- IC50 (MDA-MB-231): 18.3 µM
- IC50 (SK-OV-3): 34.1 µM
SMILES: CC(C)CNc1ccnc(NCc2csc(-c3ccc(Cl)cc3)n2)n1
- IC50 at 72 h [1]: 18.5 µM
- IC50 [2]: 16.6 µM
- IC50 (JIMT-1): 26.9 µM
- IC50 [3]: 56.3 µM

- IC50 (MDA-MB-231): 18.4 µM
- IC50 (SK-OV-3): 12.5 µM
SMILES: c1ccc(-c2nc(CNc3nccc(NC4CCCCC4)n3)cs2)cc1
- IC50 at 72 h [1]: 10.8 µM
- IC50 [2]: 11.6 µM
- IC50 (JIMT-1): 19.4 µM
- IC50 [3]: 28.2 µM

- IC50 (MDA-MB-231): 18.3 µM
- IC50 (SK-OV-3): 20.2 µM
SMILES: c1ccc(-c2nc(CNc3nccc(N4CCCC4)n3)cs2)cc1
- IC50 at 72 h [1]: 17.4 µM
- IC50 [2]: 26.2 µM
- IC50 (JIMT-1): 29.6 µM
- IC50 [3]: 61.8 µM

The next lines start with the compound.

SMILES: c1ccc(-c2nc(CNc3ncccn3)cs2)cc1
- IC50 at 72 h [1]: > 100 µM
- IC50 [2]: > 100 µM

SMILES: c1ccc(-c2nc(CNc3nccc(N4CCCCC4)n3)cs2)cc1
- IC50 at 72 h [1]: 12.3 µM
- IC50 [2]: 8.39 µM
- IC50 (MDA-MB-231): 14.6 µM
- IC50 (JIMT-1): 21.9 µM
- IC50 (SK-OV-3): 21.4 µM
- IC50 [3]: 48.3 µM

SMILES: CC(C)CNc1ccnc(NC(=O)c2csc(-c3ccccc3)n2)n1
- IC50 at 72 h [1]: 92.1 µM
- IC50 [2]: 59.1 µM
- IC50 (MDA-MB-231): > 100 µM
- IC50 (JIMT-1): > 100 µM
- IC50 (SK-OV-3): 83.5 µM

SMILES: CC(C)CNc1ccnc(NCc2csc(-c3ccccc3)c2)n1
- IC50 at 72 h [1]: 25.8 µM
- IC50 [2]: 30.7 µM
- IC50 (MDA-MB-231): 27.4 µM
- IC50 (JIMT-1): 42.2 µM
- IC50 (SK-OV-3): 26.2 µM
- IC50 [3]: 61.2 µM

SMILES: CCCCN(CCCC)c1ccnc(NCc2csc(-c3ccccc3)n2)n1
- IC50 at 72 h [1]: 14.2 µM
- IC50 [2]: 14.8 µM
- IC50 (MDA-MB-231): 21.7 µM
- IC50 (JIMT-1): 13.2 µM
- IC50 (SK-OV-3): 21.3 µM
- IC50 [3]: 35.4 µM

SMILES: c1ccc(-c2nc(CNc3nccc(NC4CC4)n3)cs2)cc1
- IC50 at 72 h [1]: 59.5 µM
- IC50 [2]: 72.3 µM
- IC50 (MDA-MB-231): > 100 µM
- IC50 (JIMT-1): 68.8 µM
- IC50 (SK-OV-3): 52.5 µM
- IC50 [3]: > 100 µM

SMILES: CC(C)CNc1ccnc(NCc2csc(-c3ccccc3)n2)n1
- IC50 at 72 h [1]: 49.1 µM
- IC50 [2]: 37.9 µM
- IC50 (MDA-MB-231): 31.1 µM
- IC50 (JIMT-1): 33 µM
- IC50 (SK-OV-3): 21.4 µM
- IC50 [3]: 89.4 µM

SMILES: CC(C)CNc1cccc(NCc2csc(-c3ccccc3)n2)c1
- IC50 at 72 h [1]: > 100 µM
- IC50 [2]: > 100 µM

SMILES: OC1CC2CC1CN2c1ccnc(NCc2csc(-c3ccccc3)n2)n1 (stereo not drawn)
- Activity (U-87MG ATCC [4]): Active
- Activity [5]: Non-Toxic
- IC50 at 72 h [1]: 5.61 µM
- IC50 [2]: 3.29 µM
- IC50 (MDA-MB-231): 6.46 µM
- IC50 (JIMT-1): 4.84 µM
- IC50 (SK-OV-3): 8.21 µM
- IC50 [3]: 23.1 µM
- inhibition [6]: Active
- inhibition [7]: Active
- Activity (U-87MG ATCC [8]): Active
- Activity (U-87MG ATCC [9]): Active
- Activity [10]: 41.2%
- Activity [11]: 74.6%
- Activity [12]: 21.31%
- half-life [13]: 126 min
- Activity (U-87MG ATCC [14]): Active
- Activity (U-87MG ATCC [15]): Dose-Dependent Effect
- Activity [16]: 21.42%
- Activity [17]: 26.72%
- Activity [18]: 48.58%
- Activity [19]: 54.28%
- half-life [20]: 252 min
- inhibition (U-87MG ATCC [21]): Active
- Activity [22]: 119.7
- Activity [23]: 73
- Activity [24]: 42.3
- IC50 at 24 h [25]: 27.5 µM
- Activity (U-87MG ATCC [26]): Active
- Activity (U-87MG ATCC [27]): Active
- Activity [28]: 72.7%
- Activity (U-87MG ATCC [29]): Dose-Dependent Effect

SMILES: CC(C)CNc1ccnc(NCc2csc(-c3ccc(C(F)(F)F)cc3)n2)n1
- IC50 at 72 h [1]: 29.8 µM
- IC50 [2]: 20.1 µM
- IC50 (MDA-MB-231): 33 µM
- IC50 (JIMT-1): 38 µM
- IC50 (SK-OV-3): 39 µM
- IC50 [3]: 65.3 µM

Source: ChEMBL document CHEMBL5247633, “Discovery of novel analogs of KHS101 as transforming acidic coiled coil containing protein 3 (TACC3) inhibitors for the treatment of glioblastoma” (Eur J Med Chem, 2022)
